pEC50: −log10 of the molar value. Activity calls are given as the source filed them. The calls are words filed in the database; no cut-off is given here.
Tests used:
[1] = (§1) Inhibition of replication in Huh-9-13 cells containing Wild type HCV replicons after 72 hrs; format: functional, cell-based; settings: Homo sapiens
[2] = Inhibition of replication in M414T cells containing mutant HCV replicons after 72 hrs; format: functional, cell-based, Homo sapiens
[3] = system: Hepacivirus hominis; test: Inhibition of HCV ssRNA synthesis by crude replicase complexes prepared from Huh-9-13 cells; format: functional
[4] = species on record: Homo sapiens; test: as §1; format: functional, cell-based

CC(C)CCn1c(=O)c(C2=NS(=O)(=O)c3ccccc3N2)c(O)c2ccccc21
pEC50 [1]: 6.05 | pEC50 [2]: < 4.50 | Activity [3]: Dose-dependent effect

O=C(N[C@@H](Cc1c[nH]c2ccccc12)C(=O)O)c1ccc2c(c1)nc(-c1ccoc1)n2C1CCCCC1
Activity [4]: inactive | Activity [3]: Dose-dependent effect
